According to patent publication US20240262793A1, “QUINAZOLINE COMPOUND, AND PREPARATION METHOD THEREFOR AND APPLICATION THEREOF” (SHANGHAI PHARMACEUTICALS HOLDING CO., LTD., priority 2021, published 2024):

How the values were obtained:
Type in all cases: cell-based
Settings in all cases: Homo sapiens, LPS 100 ng/mL
TNF-α = assay: Inhibition of TNF-α in PMA-differentiated, LPS-stimulated THP-1 cells (ELISA of cell supernatant)
Procedure: (§1) (1) Cell culture and inoculation: A stock solution of PMA at 1 mg/mL was diluted with serum-free RP1640 medium to prepare a 100 ng/mL PMA solution. Normal cultured THP-1 cells were centrifuged, resuspended in a complete medium (RP1640 medium containing 10% FBS), and counted. The cell density was adjusted to 2×10^6 cells/mL. An equal volume of 100 ng/mL PMA solution was then added, resulting in a cell density of 1×10^6 cells/mL and a final PMA concentration of 50 ng/mL. 100 μL of the cell suspension was seeded into each well of a 96-well cell culture plate with 1×10^5 cells per well. The 96-well cell culture plate was then incubated at 37° C. in a 5% CO2 atmosphere for 24 hours.
(§2) (2) Drug treatment of cells: On the second day, LPS was added to the complete medium to adjust the final concentration to 100 ng/mL, and the compound was prepared using this LPS-containing medium. The compound was added to the appropriate cell wells according to the prepared concentration gradient. The positive control group (LPS+) was a culture medium solution containing a final concentration of 100 ng/mL LPS and 0.1% DMSO without drugs, while the negative control group (LPS-) was a culture medium solution containing 0.1% DMSO without LPS. The volume in each well was 100 μL.
(§3) (3) Test sample collection: The mixture was centrifuged at 1000 rpm for 5 minutes and the cell supernatant and cell precipitate were collected separately. The cell supernatant was used to detect TNF-α and IL-6, and the cell precipitate was collected for IL-1β detection. After collecting the cell supernatant, the remaining liquid in the wells was discarded and 100 μL of cell lysis solution (20 mM Tris 8.0; 2 mM EDTA; 0.5% Triton X-100) was added to each well for complete lysis.
(§4) (4) Sample detection: The enzyme-linked immunosorbent assay (ELISA) was used to detect the content of each cytokine. The specific steps were performed according to the instructions provided in the corresponding kit manuals. The catalog numbers of kits are as follows: • Human TNF-alpha Quantikine ELISA Kit, Catalog # STA00D • Human IL-1 beta/IL-1F2 Quantikine ELISA Kit, Catalog # SLB50 • Human IL-6 Quantikine ELISA Kit, Catalog # S6050.
(§5) (5) Data analysis: The in vitro inhibitory activity of the compounds was calculated using the following formula: […]

IL-6 = assay: Inhibition of IL-6 in PMA-differentiated, LPS-stimulated THP-1 cells (ELISA of cell supernatant)
Procedure: as §1, §2, §3, §4, §5

IL-1β = assay: Inhibition of IL-1β in PMA-differentiated, LPS-stimulated THP-1 cells (ELISA of cell lysate)
Procedure: as §1, §2, §3, §4, §5

IC50 (TNF-α; THP-1, Table 8, PMA 50 ng/mL) | IC50 (IL-6; THP-1, Table 8, PMA 50 ng/mL) | IC50 (IL-1β; THP-1, Table 8, PMA 50 ng/mL) | IC50 (TNF-α; THP-1, Table 7, PMA 50 ng/mL) | IC50 (IL-6; THP-1, Table 7, PMA 50 ng/mL) | IC50 (IL-1β; THP-1, Table 7, PMA 50 ng/mL) | Compound
34.9 µM | 340 nM | 63.8 µM | – | – | – | O=C1NC2(CC2)C(=O)N1CCCCCNc1ncnc2cc(F)ccc12 [Example 55, 6-(5-((7-Fluoroquinazolin-4-yl)amino)pentyl)-4,6-diazaspiro[2.4]heptane-5,7-dione]
12.1 µM | 370 nM | 80.5 µM | – | – | – | O=C1NC2(CCCC2)C(=O)N1CCCCNc1ncnc2cc(F)ccc12 [Example 59, 3-(4-((7-Fluoroquinazolin-4-yl)amino)butyl)-1,3-diazaspiro[4.4]nonane-2,4-dione]
90.5 µM | 123000 nM | 164 µM | 69.3 µM | 32000 nM | 62.2 µM | CCN(CCO)CCCC(C)Nc1ccnc2cc(Cl)ccc12 (centres unmarked) [HCQ, Hydroxychloroquine, reference compound]
45.6 µM | 4280 nM | 53.8 µM | – | – | – | C[C@@H](CCCN1C(=O)CNC1=O)Nc1ncnc2cc(Cl)ccc12 [Example 75, (S)-3-(4-((7-Chloroquinazolin-4-yl)amino)pentyl)imidazolidine-2,4-dione]
– | – | – | 2.63 µM | 360 nM | 4.11 µM | CC(CCCN(CCO)Cc1c(F)cccc1Cl)Nc1ccnc2cc(Cl)ccc12 (centres unmarked) [Example 29, 2-((2-Fluoro-6-chlorobenzyl)(4-((7-chloroquinolin-4-yl)amino)pentyl)amino)ethan-1-ol]
– | – | – | 6.91 µM | 2060 nM | 9.79 µM | COC(=O)c1ccc(CN(CCO)CCCC(C)Nc2ccnc3cc(Cl)ccc23)c(OC)c1 (centres unmarked) [Example 22, Methyl 4-(((4-((7-chloroquinolin-4-yl)amino)pentyl)(2-hydroxyethyl)amino)methyl)-3-methoxybenzoate]
– | – | – | 18.5 µM | 1150 nM | 48.2 µM | CS(=O)(=O)c1ccc(CN(CCO)CCCCCNc2ncnc3cc(F)ccc23)cc1 [Example 49]
– | – | – | – | 630 nM | – | CC(CCCN(CCO)Cc1cnccn1)Nc1ccnc2cc(Cl)ccc12 (centres unmarked) [Example 32, 2-((4-((7-Chloroquinolin-4-yl)amino)pentyl)(pyrazin-2-ylmethyl)amino)ethan-1-ol]
– | – | – | 4.77 µM | 1200 nM | 4.46 µM | CC(CCCN(CCO)Cc1cccc(C(F)(F)F)c1)Nc1ccnc2cc(Cl)ccc12 (centres unmarked) [Example 24, 2-((4-((7-Chloroquinolin-4-yl)amino)pentyl)(3-(trifluoromethyl)benzyl)amino)ethan-1-ol]
– | – | – | 12.6 µM | 1090 nM | 10.3 µM | OCCN(CCCCCNc1ncnc2cc(Cl)ccc12)Cc1ccc(OC(F)(F)F)cc1 [Example 45, 2-((5-((7-Chloroquinazolin-4-yl)amino)pentyl)(4-(trifluoromethoxy)benzyl)amino)ethan-1-ol]
12.7 µM | 640 nM | 16.1 µM | – | – | – | CC(CCCN1C(=O)NC2(CCC2)C1=O)Nc1ncnc2cc(Cl)ccc12 (centres unmarked) [Example 71, 7-(4-((7-Chloroquinazolin-4-yl)amino)pentyl)-5,7-diazaspiro[3.4]octane-6,8-dione]
– | 460 nM | – | – | – | – | O=C1NC2(CCC2)C(=O)N1CCCCCNc1ncnc2cc(Cl)ccc12 [Example 70, 7-(5-((7-Chloroquinazolin-4-yl)amino)pentyl)-5,7-diazaspiro[3.4]octane-6,8-dione]
79.4 µM | 14400 nM | 23.1 µM | – | – | – | O=C1CNC(=O)N1CCCCNc1ncnc2cc(Cl)ccc12 [Example 63, 3-(4-((7-Chloroquinazolin-4-yl)amino)butyl)imidazoline-2,4-dione]
– | 3990 nM | 122 µM | – | – | – | O=C1CNC(=O)N1CCCCCNc1ncnc2cc(F)ccc12 [Example 50, 3-(5-((7-Fluoroquinazolin-4-yl)amino)pentyl)imidazolidine-2,4-dione]
– | – | – | 6.86 µM | 1050 nM | 17.2 µM | COC(=O)c1ccc(CN(CCO)CCCC(C)Nc2ncnc3cc(Cl)ccc23)cc1 (centres unmarked) [Example 36, Methyl 4-(((4-((7-chloroquinazolin-4-yl)amino)pentyl)(2-hydroxyethyl)amino)methyl)benzoate]
– | – | – | 17.4 µM | 1240 nM | – | CC(CCCN1C(=O)CCC1=O)Nc1ncnc2cc(Cl)ccc12 (centres unmarked) [Example 15, 1-(4-((7-Chloroquinazolin-4-yl)amino)pentyl)pyrrolidine-2,5-dione]
– | – | – | 7.13 µM | 1310 nM | 8.64 µM | COc1ccc(CN(CCO)CCCC(C)Nc2ccnc3cc(Cl)ccc23)cc1F (centres unmarked) [Example 31, 2-((4-((7-Chloroquinolin-4-yl)amino)pentyl)(3-fluoro-4-methoxybenzyl)amino)ethan-1-ol]

IC50 (TNF-α; THP-1, Table 8, PMA 50 ng/mL) | IC50 (IL-6; THP-1, Table 8, PMA 50 ng/mL) | IC50 (IL-1β; THP-1, Table 8, PMA 50 ng/mL) | IC50 (TNF-α; THP-1, Table 7, PMA 50 ng/mL) | IC50 (IL-6; THP-1, Table 7, PMA 50 ng/mL) | IC50 (IL-1β; THP-1, Table 7, PMA 50 ng/mL) | Compound
– | 420 nM | – | – | – | – | O=C1NC2(CC2)C(=O)N1CCCCCNc1ncnc2cc(Cl)ccc12 [Example 68, 6-(5-((7-Chloroquinazolin-4-yl)amino)pentyl)-4,6-diazaspiro[2.4]heptane-5,7-dione]
– | – | – | 8.91 µM | 380 nM | 15 µM | CC(CCCN1CC(F)(F)C1)Nc1ccnc2cc(Cl)ccc12 (centres unmarked) [Example 10, 7-Chloro-N-(5-(3,3-difluoroazetidin-1-yl)pentan-2-yl)quinolin-4-amine]
159 µM | 18800 nM | 16.3 µM | – | – | – | O=C1CNC(=O)N1CCCCNc1ncnc2cc(F)ccc12 [Example 56, 3-(4-((7-Fluoroquinazolin-4-yl)amino)butyl)imidazoline-2,4-dione]
65.2 µM | 4600 nM | 105 µM | – | – | – | O=C1CNC(=O)N1CCCCCNc1ncnc2cc(Cl)ccc12 [Example 67, 3-(5-((7-Chloroquinazolin-4-yl)amino)pentyl)imidazoline-2,4-dione]
– | 520 nM | 118 µM | – | – | – | CC1(C)NC(=O)N(CCCCCNc2ncnc3cc(F)ccc23)C1=O [Example 53, 3-(5-((7-Fluoroquinazolin-4-yl)amino)pentyl)-5,5-dimethylimidazoline-2,4-dione]
– | 12400 nM | – | – | – | – | C[C@H](CCCN1C(=O)CNC1=O)Nc1ncnc2cc(Cl)ccc12 [Example 74, (R)-3-(4-((7-Chloroquinazolin-4-yl)amino)pentyl)imidazolidine-2,4-dione]
– | – | – | – | 3850 nM | – | CC(CCCN(CCO)Cc1ncn(C)n1)Nc1ccnc2cc(Cl)ccc12 (centres unmarked) [Example 33, 2-((4-((7-Chloroquinolin-4-yl)amino)pentyl)((1-methyl-1H-1,2,4-triazol-3-yl)methyl)amino)ethan-1-ol]
– | – | – | 56.7 µM | 270 nM | – | OCCN(CCCCCNc1ncnc2cc(Cl)ccc12)Cc1ncco1 [Example 46, 2-((5-((7-Chloroquinazolin-4-yl)amino)pentyl)(oxazol-2-ylmethyl)amino)ethan-1-ol]
– | – | – | – | 20500 nM | – | CC(CCCN1C(=O)CNC1=O)Nc1ccnc2cc(F)ccc12 (centres unmarked) [Example 12, 3-(4-((7-Fluoroquinolin-4-yl)amino)pentyl)imidazolidine-2,4-dione]
– | – | – | 7.28 µM | 120 nM | – | CC(CCCN(CCO)Cc1c(F)cccc1Cl)Nc1ncnc2cc(Cl)ccc12 (centres unmarked) [Example 38]
– | 5840 nM | 134 µM | – | – | – | O=C1NC2(CC2)C(=O)N1CCCCNc1ncnc2cc(F)ccc12 [Example 61, 6-(4-((7-Fluoroquinazolin-4-yl)amino)butyl)-4,6-diazaspiro[2.4]heptane-5,7-dione]
– | – | – | – | 30400 nM | – | CC(CCCN(CCO)Cc1ncco1)Nc1ccnc2cc(F)ccc12 (centres unmarked) [Example 41]
– | 34000 nM | – | – | – | – | O=C1NC2(CCNCC2)C(=O)N1CCCCNc1ncnc2cc(F)ccc12 [Example 60, 3-(4-((7-Fluoroquinazolin-4-yl)amino)butyl)-1,3,8-triazaspiro[4.5]decane-2,4-dione]
– | – | – | – | 2980 nM | – | CC(CCCN1CC2(CCOCC2)C1)Nc1ncnc2cc(F)ccc12 (centres unmarked) [Example 14, N-(5-(7-Oxa-2-azaspiro[3.5]nonan-2-yl)pentan-2-yl)-7-fluoroquinazolin-4-amine]
– | 2020 nM | – | – | – | – | O=C1NC2(CC2)C(=O)N1CCCCNc1ncnc2cc(Cl)ccc12 [Example 65, 6-(4-((7-Chloroquinazolin-4-yl)amino)butyl)-4,6-diazaspiro[2.4]heptane-5,7-dione]
– | – | – | 56.5 µM | 5530 nM | – | CC(CCCNCCN1CCCC1)Nc1ccnc2cc(Cl)ccc12 (centres unmarked) [Example 3, N^4-(7-Chloroquinolin-4-yl)-N^1-(2-(pyrrolidin-1-yl)ethyl)pentane-1,4-diamine]

Compound | IC50 (TNF-α; THP-1, Table 8, PMA 50 ng/mL) | IC50 (IL-6; THP-1, Table 8, PMA 50 ng/mL) | IC50 (IL-1β; THP-1, Table 8, PMA 50 ng/mL) | IC50 (TNF-α; THP-1, Table 7, PMA 50 ng/mL) | IC50 (IL-6; THP-1, Table 7, PMA 50 ng/mL) | IC50 (IL-1β; THP-1, Table 7, PMA 50 ng/mL)
CC(CCCN1CC2(COC2)C1)Nc1ccnc2cc(Cl)ccc12 (centres unmarked) [Example 6, N-(5-(2-Oxa-6-azaspiro[3.3]heptan-6-yl)pentan-2-yl)-7-chloroquinolin-4-amine] | – | – | – | 32.7 µM | 23900 nM | –
